SMILES strings stand for the structures.

The assay deals with Blattalla germanica. The experiment in a line: Test Example 4: filter paper with sucrose bait, Blattalla germanica. The class given is in vivo. The settings on record: 500 ppm, 0.7 ml on filter paper; 2 male imagoes; after 6 days. How it is done: A formulation of any one of the present compounds (2), (3) and (4) obtained according to Formulation Example 10 was diluted with water so that the active ingredient concentration was 500 ppm to obtain a test solution.
A filter paper having a diameter of 5.5 cm was spread on the bottom of a polyethylene cup having a diameter of 5.5 cm and 0.7 ml of the test solution was added dropwise onto the filter paper. As a bait 30 mg of sucrose was uniformly placed on the filter paper. Into the polyethylene cup, 2 male imagoes of Blattalla germanica were released and the cup was sealed with a lid. After 6 days, the number of surviving Blattalla germanica was examined and the death rate of the pest was calculated.
`CC(C)(C)c1cc(CSCCC(F)(F)F)no1` [present compound (2), 5-tert-butyl-3-[(3,3,3-trifluoropropylsulfanyl)methyl]isoxazole] displayed a pest death rate of 100%.
Compound `FC(F)(F)CCSCn1cnc(C(F)(F)F)c1` [present compound (3), 4-trifluoromethyl-1-[(3,3,3-trifluoropropylsulfanyl)methyl]-1H-imidazole] had a pest death rate of 100%.
With `CC(C)(C)n1cc(CSCCC(F)(F)F)cn1` [present compound (4), 1-tert-butyl-4-[(3,3,3-trifluoropropylsulfanyl)methyl]-1H-pyrazole], the pest death rate stood at 100%.
